According to patent US9861640B2, “Medicament for treatment of Alzheimer's disease” (KEMPHYS LTD., priority 2013, dated 2018):

Tested on: IL-4Rα
Assay: Immunoblot of IL-4Rα in MG5 cells
Format: cell-based, mouse
Settings: 5 μM each, 48 h
Excerpt: Primary microglia (type 1) were harvested from primary mixed glial cell cultures prepared from neonatal Wistar rat pups, as previously reported. Mouse microglial cell line MG5 and mouse glial cell line A1 were maintained as previously described. Mouse neuroblastoma cell line N1E-115 and Neuro 2a (American Type Culture Collection, Manassas, Va., USA) were maintained in Dulbecco's modified Eagle's medium (DMEM) supplemented with 10% fetal bovine serum (FBS), 20 U/ml penicillin (Invitrogen, Gaithersburg, Md., USA), and 20 μg/ml streptomycin (Invitrogen). Primary rat microglia were treated with Am80 (5 μM) and/or HX630 (5 μM) in the presence and absence of GW9662 (10 μM) for 48 h in Eagle's MEM supplemented with 10% FBS and 0.2% glucose. MG5 cells and A1 cells were treated with Am80 (5 μM) and/or HX630 (5 μM) for 48 h in DMEM containing 10% FBS. […]
Rat primary microglia and mouse microglial MG5 cells (5×10^6 cells per 100-mm dish) were homogenized in RIPA buffer [10 mM Hepes-NaOH (pH 7.4) containing 150 mM NaCl, 1 mM EDTA, 1% Triton X-100, 0.5% sodium deoxycholate, 0.1% SDS, 1 mM PMSF, 1 mg/ml leupeptin. […] Bound horseradish peroxidase-labeled antibodies were then detected via chemiluminescence (an ECL kit; Pierce, Rockford, Ill., USA). Protein concentrations were determined with the BCA Protein Assay Reagent (Pierce) and Bradford Protein Assay Reagent (Pierce).

| SMILES | IL-4Rα protein levels in MG5 cells |
| --- | --- |
| CC1(C)CCC(C)(C)c2cc(NC(=O)c3ccc(C(=O)O)cc3)ccc21 [Am80, 4-{(5,6,7,8-tetrahydro-5,5,8,8-tetramethyl-2-naphthalenyl)carbamoyl}benzoic acid] | did not increase |
| CN1c2ccccc2N=C(c2ccc(C(=O)O)cc2)c2cc3c(cc21)C(C)(C)CCC3(C)C [HX630, 4-[5H-2,3-(2,5dimethyl-2,5-hexano)-5-methyldibenzo[b,e]-diazepin-11-yl]benzoic acid] | did not increase |
